Results on 1 substance are retold here after patent US11001615B2, “Mutated tau protein fragment and use thereof” (ADEL INC., priority 2016, dated 2021).

“Also recorded” adds a separate entry of the source. Ends that are not written are not given here.

Common to all, as to format: in vivo
For experiment [1], the system named is Tau-P301L dementia mice. The experiment is described as follows: Western blotting of brain tissues for synapse-related proteins. The following applies: brain tissue. As for the experimental part:
(§1) JNPL3 mice expressing Tau-P301L mutant gene were purchased from Taconic, and back-crossed with C57bl/6 mice for five generations in the experimental animal room of the Asan Institute for Life Sciences. Then, the mice were raised under a specific pathogen free (SPE) condition. For active immunization, the mice were administered, for six months starting from three months after birth at intervals of two weeks, two weeks, four weeks, four weeks, five weeks, four weeks, and one week in this order, the four modified tau protein fragments prepared in Preparation Example 1 together with keyhole limpet hemocyanin (KLH) as a carrier and an aluminum adjuvant. At this time, administration was carried out through intraperitoneal injection (IP injection). The dementia mice which were actively immunized by administration of the K280-ac fragment were designated as Tau-P301L-K280-ac.
In order to identify a synapse-improving effect following administration of the K280-ac fragment, brain tissues of the Tau-P301L-K280-ac dementia mice, the P301L-K280-ac dementia mice, and the normal mice produced in Preparation Example 2 were extracted, and western blotting was performed.

Experiment [2] concerns Tau-P301L dementia mice. In words: MR spectroscopy (MRS) of the hippocampus. The following applies: hippocampus ROI; dementia mice about 50% decrease versus normal mice. The protocol:
as §1
In order to identify a metabolic imaging index-improving effect following administration of the K280-ac fragment, MR spectroscopy (MRS) was performed on the Tau-P301L-K280-ac dementia mice, the P301L-K280-ac dementia mice, and the normal mice produced in Preparation Example 2. The hippocampus was designated as a region of interest (ROI) (FIG. 36).

Experiment [3] can be described thus: Antibody production after primary and secondary boosting (vaccine comparison). The following applies: compared with N-terminal fragment of tau protein. As for the experimental part: In addition, in order to identify whether the K280-ac fragment is effective as a vaccine, the N-terminal fragment and the K280-ac fragment of the tau protein having the amino acid sequence represented by SEQ ID NO: 31 were administered, and primary boosting and secondary boosting were performed. Then, these fragments were compared in terms of antibody production.

Experiment [4] deals with Tau-P301L dementia mice. The experiment is described as follows: Memory tests and motor ability tests after active immunization (overall comparison). The settings on record: comparison of the four modified tau protein fragments.
Source text: Tau-P301L dementia mice were actively immunized by administration of the four modified tau protein fragments prepared in Preparation Example 1. Then, the Tau-P301L dementia mice were subjected to memory tests such as fear conditioning test and Morris water maze test, motor ability tests such as grip strength test and vertical test, and the like, so that improved effects obtained by the respective modified tau protein fragments were compared.
as §1

Experiment [5] relates to Tau-P301L dementia mice. In words: Fear conditioning experiment. The following applies: actively immunized Tau-P301L dementia mice; normal mice about 150, Tau-P301L 100 or shorter. As for the experimental part: as §1
A fear conditioning experiment was performed on the mice raised in Preparation Example 2. […]
On the day before the fear conditioning experiment, the mice were allowed to become accustomed to a training situation by being placed in the training situation for 10 minutes. […] All tests were recorded on Limelight (Actimetrics) and a computer.
On the next day, the mice were placed again in the experimental cage for 10 minutes and a baseline freezing time was measured while the beep sound was heard. […]

The test system of experiment [6] is Tau-P301L dementia mice. The experiment is described as follows: Western blotting of brain tissues for tau proteins (tauopathy-alleviating effect). The settings on record: brain tissue. The protocol: as §1
In order to identify a tauopathy-alleviating effect following administration of the K280-ac fragment, brain tissues of the Tau-P301L-K280-ac dementia mice, the P301L-K280-ac dementia mice, and the normal mice produced in Preparation Example 2 were extracted, and western blotting and immunohistochemical staining were performed.
On the technique in general: In western blotting, separated proteins are transferred to a membrane and probed.

Experiment [7] concerns Tau-P301L dementia mice. The experiment is described as follows: Vertical grid test. The settings on record: normal mice 10 or shorter, Tau-P301L 5 or shorter. As for the experimental part: as §1
A vertical grid test was performed on the mice raised in Preparation Example 2. […] Specifically, the mice were placed on the vertical grid device, and allowed to go up and down the vertical grid. The time until the mice dropped down from the grid was measured.

Experiment [8] concerns Tau-P301L dementia mice. The experiment is described as follows: Antibody distribution in brain tissue (immunohistochemical staining and western blotting for mouse immunoglobulin-G). The following applies: after cardiac perfusion. The protocol:
as §1
In order to identify antibodies in brain tissues of the Tau-P301L-K280-ac dementia mice, the P301L-K280-ac dementia mice, and the normal mice produced in Preparation Example 2, cardiac perfusion was performed with cold physiological saline. Then, the brain tissues were extracted, and immunohistochemical staining and western blotting were performed for mouse immunoglobulin-G.

Experiment [9] deals with Tau-P301L dementia mice. The experiment is described as follows: Water maze test. The following applies: 5th day, platform removed; normal mice about 3, Tau-P301L about 1. As for the experimental part: as §1
An underwater maze test was performed to evaluate a learning and memory ability of the mice. […] Specifically, the underwater maze test took a total of 5 days. The mice were trained for 4 days in a state where a platform and a visual cue for the platform location are placed.
The learning was conducted by filling a swimming pool (1.4 m in diameter, 45 cm in depth) having a platform with water (29±0.5° C.) to a depth of about 26.5 cm, and then 1.5 L of whole milk powder was added to make water cloudy so that the mice can remember the platform with the cue only. Then, the mice were adapted to freely swim for 60 seconds and allowed to rest on the platform for 1 minute. The experiment was performed over a total of 12 times with 4 sets at three different starting positions. At the end of each test, 30 seconds of break time was given. At the end of one set, 30 to 45 minutes of break time was given.
After 4 days of learning, the test was performed on the 5th day. In the experiment for evaluation, the platform was not placed, and the number of staying in the area where the platform has been placed was measured in order to identify whether the mice visit well the platform location using the cue only. The test time was set for the mice to arrive at the location where the platform had been placed within one minute. If the mice fail to arrive at the platform location within one minute, the mice were removed out of the swimming pool.

As to “Val-Gln-Ile-Ile-Asn-Lys-Lys-Leu-Asp-Leu-Ser-Asn (VQIINK(Ac)KLDLSN) [K280-ac]”, the “expression level of synapse-related proteins such as PSD95, NMDA receptor, synaptophysin, and synapsin-1” value in the experiment with Tau-P301L dementia mice [1] is on record as “restored to that in the normal mice”. Moreover, the “N-acetyl-aspartyl-glutamic acid (NAAG)” value in the experiment with Tau-P301L dementia mice [2] is “restored”. In addition, in experiment [3], the antibody production result was “higher antibody production than the N-terminal fragment”. In the experiment with Tau-P301L dementia mice [4], the “improved effect in memory and motor ability tests” value is “improved effect at a level similar to that in normal mice; also recorded: restores a motor ability and a cognitive function”. In addition, the freezing time result in the experiment with Tau-P301L dementia mice [5] is listed as “about 150 seconds”. Moreover, in the experiment with Tau-P301L dementia mice [6], the acetylated tau proteins entry is reported as “decrease” and the phosphorylated tau proteins result is given as “decrease”. Further, the “tau proteins in which lysine, the 280th amino acid, is acetylated” value with Tau-P301L dementia mice [6] (Tau-P301L 2-fold increase versus normal mice) was “decreased level of tau proteins which corresponds to that in the normal mice”. In the experiment with Tau-P301L dementia mice [7], the “measured time on the vertical grid” value came to 10 s. The “antibodies in brain tissues” value in the experiment on Tau-P301L dementia mice [8] is reported as “antibodies are present”. The number of arrivals result in the experiment on Tau-P301L dementia mice [9] is given as “about 3 times”.
